Experimental data published in patent publication US11945822B2, “Pyrazolo-triazine and/or pyrazolo-pxrimidine derivatives as selective inhibitor of cyclin dependent kinase” (QURIENT CO., LTD., priority 2018, dated 2024).

Key:
[1] = target: T1, CDK1/Cyclin B (Homo sapiens, UniProt P06493); experiment: Enzymatic assay for CDK1 (FRET based LANCE Ultra kinase assay); assay type: biochemical; details: read-out: CDK1 enzymatic activity (IC50 range)
T1 construct: purchased Invitrogen PR4768C
Method in brief: (§1)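 LANCE Ultra TR-FRET: ULight-MBP peptide (68 nM) with ATP at Km, […], 60 min at 23° C. EDTA plus Eu-anti-phospho-MBP added, another 60 min, then 665/615 nm emission read. Compounds tested as 8-dose 4-fold DMSO dilutions.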

[2] = target: T2, CDK2/Cyclin A (Homo sapiens, UniProt P24941); experiment: Enzymatic assay for CDK2 (FRET based LANCE Ultra kinase assay); assay type: biochemical; details: read-out: CDK2 enzymatic activity (IC50 range)
T2 construct: purchased Invitrogen PV6290
Method in brief: as §1

[3] = target: T3, CDK5/p25 (Homo sapiens, UniProt Q00535); experiment: Enzymatic assay for CDK5 (FRET based LANCE Ultra kinase assay); assay type: biochemical; details: read-out: CDK5 enzymatic activity (IC50 range)
T3 construct: purchased Invitrogen PR8543B
Method in brief: as §1

[4] = target: T4, CDK7/Cyclin H/MNAT1 (Homo sapiens, UniProt P50613); experiment: Enzymatic assay for CDK7 (FRET based LANCE Ultra kinase assay); assay type: biochemical; details: for IC50: read-out: CDK7 enzymatic activity (IC50 range)
T4 construct: purchased Invitrogen PR6749B
Method in brief: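 LANCE Ultra TR-FRET kinase assay using a ULight-labeled peptide substrate and a Eu-labeled anti-phospho antibody, with ATP at its Km. Purified CDK/cyclin complex was added to compound after brief centrifugation.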

[5] = system: H460; experiment: Cellular H460 viability assay (CellTiter-Glo, 72 hours); assay type: cell-based; details: Homo sapiens, NCI-H460
Method in brief: (§2)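 Cells were plated at line-specific densities and exposed to compound for 72 hours at 37 °C, 5% CO2, with DMSO-only wells as control (final DMSO below 0.1%). Viability was measured by CellTiter-Glo luminescence in duplicate.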

[6] = system: MM.1S; experiment: Cellular MM.1S viability assay (CellTiter-Glo, 72 hours); assay type: cell-based; details: Homo sapiens, MM1.S
Description: Human T-cell acute lymphoblastic leukemia cell line, MOLT-4 (ATCC, Cat #CRL-1582), Human multiple myeloma cell line, RPMI-8226 (Invitrogen, Cat #22400-089) and MM.1S (ATCC, Cat #CRL-2974), NSCLC (Non-small cell lung cancer) cell line H460 (ATCC, Cat #HTB-177), Human colon colorectal carcinoma cell line HCT116 (ATCC, Cat #CCL-247), Human acute monocytic leukemia cell line MV4-11 (ATCC, Cat #CRL-9591), OVCAR-3 (ATCC, Cat #HTB-161) and A2780 (ECACC, Cat #93112519) were obtained from ATCC. Cells were grown in RPMI-1640 media (Invitrogen, Cat #22400-089) supplemented with 10% FBS (Invitrogen, Cat #10099141) and 1% penicillin/streptomycin (Invitrogen, Cat #15070063) and cultured at 37° C., 5% CO2 in a humidified chamber. All cell lines were routinely tested for mycoplasma.
The effect of the CDK7 inhibitor to inhibit the growth of target cancer cells was evaluated through the 72 hours time period of viability assay. Briefly, the candidate cell line ware plated in 96 well plate at the following density of cells respectively. 1×10^4 cells/well for MOLT-4, RPMI-8226, MV4-11 and MM.1S, 5×10^3 for H460, HCT116 and OVCAR-3 and IX 10^3 for A2780. After 24 hours, the cells were treated with various concentrations of the compound (ranging from 0.0015 uM to 10 uM). DMSO solvent without compound served as a control and final DMSO concentration less than 0.1%. After 72 hours of incubation at 37° C., 5% CO2 incubator, cells were analyzed for the viability using the CellTiter-Glo Luminescent Cell Viability Assay (Promega, Cat #G7570). All viability assays were performed in duplicate and Luminescence was read using an Envision (Perkin Elmer, USA). Data was analyzed using XLfit software.

[7] = system: MV4-11; experiment: Cellular MV4-11 viability assay (CellTiter-Glo, 72 hours); assay type: cell-based; details: Homo sapiens
Method in brief: as §2

[8] = system: MOLT-4; experiment: Cellular MOLT-4 viability assay (CellTiter-Glo, 72 hours); assay type: cell-based; details: Homo sapiens, MOLT4 viability assay
Method in brief: as §2

[9] = system: HCT116; experiment: Cellular HCT116 viability assay (CellTiter-Glo, 72 hours); assay type: cell-based; details: Homo sapiens, HCT-116
Method in brief: as §2

[10] = system: RPMI-8226; experiment: Cellular RPMI-8226 viability assay (CellTiter-Glo, 72 hours); assay type: cell-based; details: Homo sapiens
Method in brief: as §2

T4 sequence (P50613 whole entry): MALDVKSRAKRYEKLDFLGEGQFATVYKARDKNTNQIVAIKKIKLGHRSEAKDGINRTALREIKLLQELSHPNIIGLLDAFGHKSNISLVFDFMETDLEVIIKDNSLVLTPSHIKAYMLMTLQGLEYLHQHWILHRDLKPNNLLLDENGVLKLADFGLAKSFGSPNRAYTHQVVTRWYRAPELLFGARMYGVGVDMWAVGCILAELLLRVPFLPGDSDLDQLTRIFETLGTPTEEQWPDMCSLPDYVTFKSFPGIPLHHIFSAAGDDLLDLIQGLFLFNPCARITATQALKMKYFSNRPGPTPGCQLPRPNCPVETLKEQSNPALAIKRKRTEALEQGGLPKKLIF
T4 sequence (P51946 whole entry partner): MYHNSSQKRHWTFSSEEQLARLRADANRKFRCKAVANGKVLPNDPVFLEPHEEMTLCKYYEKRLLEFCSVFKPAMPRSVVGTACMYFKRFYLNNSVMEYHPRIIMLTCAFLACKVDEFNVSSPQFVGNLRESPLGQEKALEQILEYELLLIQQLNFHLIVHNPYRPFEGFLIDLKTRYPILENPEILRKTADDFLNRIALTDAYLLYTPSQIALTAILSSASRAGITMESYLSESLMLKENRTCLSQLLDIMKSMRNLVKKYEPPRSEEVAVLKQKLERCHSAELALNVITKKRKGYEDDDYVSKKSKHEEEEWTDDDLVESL
T4 sequence (P51948 whole entry partner): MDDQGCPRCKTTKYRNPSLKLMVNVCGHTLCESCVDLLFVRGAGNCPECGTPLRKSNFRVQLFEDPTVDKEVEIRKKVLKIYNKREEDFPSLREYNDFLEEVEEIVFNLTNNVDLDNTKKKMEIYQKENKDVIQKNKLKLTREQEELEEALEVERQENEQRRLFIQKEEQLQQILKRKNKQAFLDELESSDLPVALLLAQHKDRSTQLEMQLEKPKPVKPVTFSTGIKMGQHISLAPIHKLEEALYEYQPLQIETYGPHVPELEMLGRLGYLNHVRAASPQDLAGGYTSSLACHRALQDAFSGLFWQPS
T3 sequence (Q00535 whole entry): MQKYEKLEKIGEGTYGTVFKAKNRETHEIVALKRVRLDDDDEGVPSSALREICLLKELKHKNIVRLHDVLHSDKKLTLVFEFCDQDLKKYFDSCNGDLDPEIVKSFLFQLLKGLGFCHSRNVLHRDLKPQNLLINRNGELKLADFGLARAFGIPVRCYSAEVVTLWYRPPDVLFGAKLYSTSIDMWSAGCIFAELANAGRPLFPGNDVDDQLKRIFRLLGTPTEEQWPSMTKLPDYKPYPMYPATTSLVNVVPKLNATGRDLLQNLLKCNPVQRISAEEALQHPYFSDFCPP
T3 sequence (Q15078 99-307 partner limits assumed): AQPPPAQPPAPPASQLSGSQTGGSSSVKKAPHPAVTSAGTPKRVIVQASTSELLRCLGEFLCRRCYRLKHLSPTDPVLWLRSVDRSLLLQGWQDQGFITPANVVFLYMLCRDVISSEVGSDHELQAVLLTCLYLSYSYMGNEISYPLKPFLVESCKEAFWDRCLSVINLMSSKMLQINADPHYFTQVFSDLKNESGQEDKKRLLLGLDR
T1 sequence (P06493 whole entry): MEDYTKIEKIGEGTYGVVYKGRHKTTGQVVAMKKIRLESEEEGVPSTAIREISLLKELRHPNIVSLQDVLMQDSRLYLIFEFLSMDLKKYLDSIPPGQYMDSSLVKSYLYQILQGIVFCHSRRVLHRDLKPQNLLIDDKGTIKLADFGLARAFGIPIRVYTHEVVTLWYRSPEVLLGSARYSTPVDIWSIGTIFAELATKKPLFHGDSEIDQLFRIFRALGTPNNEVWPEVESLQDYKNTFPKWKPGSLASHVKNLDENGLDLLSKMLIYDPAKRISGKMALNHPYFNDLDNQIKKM
T1 sequence (P14635 whole entry partner): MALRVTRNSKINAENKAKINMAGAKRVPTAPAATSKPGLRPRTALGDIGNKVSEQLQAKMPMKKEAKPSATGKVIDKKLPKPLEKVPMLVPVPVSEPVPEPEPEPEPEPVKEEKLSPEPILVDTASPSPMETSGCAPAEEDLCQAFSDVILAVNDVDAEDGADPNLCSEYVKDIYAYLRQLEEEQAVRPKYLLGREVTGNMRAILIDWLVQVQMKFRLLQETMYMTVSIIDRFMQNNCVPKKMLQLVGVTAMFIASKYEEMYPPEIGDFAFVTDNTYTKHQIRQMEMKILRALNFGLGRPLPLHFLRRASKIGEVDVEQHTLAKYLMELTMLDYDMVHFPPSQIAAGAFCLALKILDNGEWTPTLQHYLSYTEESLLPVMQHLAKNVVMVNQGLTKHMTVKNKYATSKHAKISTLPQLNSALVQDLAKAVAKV

Row | SMILES | IC50 [1] | IC50 [2] | IC50 [3] | CDK1/CDK7: Selectivity of CDK7 inhibition over CDK1 inhibition [4] | CDK2/CDK7: Selectivity of CDK7 inhibition over CDK2 inhibition [4] | CDK5/CDK7: Selectivity of CDK7 inhibition over CDK5 inhibition [4] | IC50 [4] | IC50 [5] | IC50 [6] | IC50 [7] | IC50 [8] | IC50 [9] | IC50 [10]
1 | CC(C)c1cnn2c(NCc3ccccc3-n3cccn3)nc(N3CCC(N4CCNCC4)CC3)nc12 [Compound 174] | > 1000 nM | > 1000 nM | 100 to 1000 nM | A (A=greater than 200 fold) | A (A=greater than 200 fold) | B (B=less than 200 fold, but greater than 20 fold) | < 100 nM | < 1000 nM | ≤ 1000 nM | < 1000 nM | > 10000 nM | – | –
2 | CC(C)c1cnn2c(NCc3ccccc3-n3cc4c(n3)CCNC4=O)nc(N3CCC(N)CC3)nc12 [Compound 134] | > 1000 nM | 100 to 1000 nM | 100 to 1000 nM | A (A=greater than 200 fold) | B (B=less than 200 fold, but greater than 20 fold) | B (B=less than 200 fold, but greater than 20 fold) | < 100 nM | 1000 to 10000 nM | 1000 to 10000 nM | < 1000 nM | – | < 1000 nM | < 1000 nM
3 | CC(C)c1cnn2c(NCc3c(Cl)cccc3-n3cc(N4CCNCC4)cn3)nc(N3CCC(N)CC3)nc12 [Compound 193] | > 1000 nM | > 1000 nM | 100 to 1000 nM | A (A=greater than 200 fold) | A (A=greater than 200 fold) | B (B=less than 200 fold, but greater than 20 fold) | < 100 nM | < 1000 nM | ≤ 1000 nM | < 1000 nM | – | < 1000 nM | –
4 | CC(C)c1cnn2c(NCc3ccccc3-c3cc4ccccc4[nH]3)nc(N3CCNC(=O)C3)nc12 [Compound 175] | > 1000 nM | > 1000 nM | > 1000 nM | A (A=greater than 200 fold) | B (B=less than 200 fold, but greater than 20 fold) | B (B=less than 200 fold, but greater than 20 fold) | < 100 nM | 1000 to 10000 nM | 1000 to 10000 nM | 1000 to 10000 nM | – | 1000 to 10000 nM | 1000 to 10000 nM
5 | CC(C)c1cnn2c(NCc3c(Cl)cccc3-n3ccc(C(=O)N4CCNCC4)n3)nc(N3CCC(N)CC3)nc12 [Compound 198] | > 1000 nM | > 1000 nM | 100 to 1000 nM | A (A=greater than 200 fold) | A (A=greater than 200 fold) | A (A=greater than 200 fold) | < 100 nM | 1000 to 10000 nM | ≤ 1000 nM | < 1000 nM | – | < 1000 nM | –
6 | CC(C)c1cnn2c(NCc3c(Cl)cccc3-n3ccc(C(=O)NC4CCNCC4)n3)nc(N3CCC(N)CC3)nc12 [Compound 196] | > 1000 nM | > 1000 nM | 100 to 1000 nM | A (A=greater than 200 fold) | A (A=greater than 200 fold) | A (A=greater than 200 fold) | < 100 nM | 1000 to 10000 nM | 1000 to 10000 nM | < 1000 nM | – | < 1000 nM | –
7 | Cc1cccc(-c2cc3ccccc3[nH]2)c1CNc1nc(N2CCC(N)CC2)nc2c(C(C)C)cnn12 [Compound 184] | > 1000 nM | > 1000 nM | 100 to 1000 nM | A (A=greater than 200 fold) | A (A=greater than 200 fold) | B (B=less than 200 fold, but greater than 20 fold) | < 100 nM | < 1000 nM | ≤ 1000 nM | < 1000 nM | – | < 1000 nM | –
8 | CC(C)c1cnn2c(NCc3c(Cl)cccc3-n3cc4c(n3)CCNC4=O)nc(N3CCC(N)CC3)nc12 [Compound 189] | > 1000 nM | > 1000 nM | 100 to 1000 nM | A (A=greater than 200 fold) | A (A=greater than 200 fold) | B (B=less than 200 fold, but greater than 20 fold) | < 100 nM | < 1000 nM | ≤ 1000 nM | < 1000 nM | – | < 1000 nM | –
9 | CC(C)c1cnn2c(NCc3ccccc3-n3ccc(C(=O)NC4CCOCC4)n3)nc(N3CCC(N)CC3)nc12 [Compound 177] | 100 to 1000 nM | 100 to 1000 nM | < 100 nM | A (A=greater than 200 fold) | B (B=less than 200 fold, but greater than 20 fold) | C (C=less than 20 fold) | < 100 nM | < 1000 nM | ≤ 1000 nM | < 1000 nM | – | < 1000 nM | –
10 | CNC(=O)c1cc2cn(-c3ccccc3CNc3nc(N4CCC(N)CC4)nc4c(C(C)C)cnn34)nc2cc1C [Compound 160] | > 1000 nM | 100 to 1000 nM | 100 to 1000 nM | A (A=greater than 200 fold) | B (B=less than 200 fold, but greater than 20 fold) | B (B=less than 200 fold, but greater than 20 fold) | < 100 nM | < 1000 nM | ≤ 1000 nM | < 1000 nM | – | < 1000 nM | –
11 | CC(C)c1cnn2c(NCc3c(Cl)cccc3-c3ccn(C4CCNCC4)n3)nc(N3CCC(N)CC3)nc12 [Compound 195] | > 1000 nM | > 1000 nM | 100 to 1000 nM | A (A=greater than 200 fold) | A (A=greater than 200 fold) | A (A=greater than 200 fold) | < 100 nM | < 1000 nM | ≤ 1000 nM | < 1000 nM | – | < 1000 nM | –
12 | CC(=O)NC1CCc2nn(-c3ccccc3CNc3nc(N4CCC(N)CC4)nc4c(C(C)C)cnn34)cc2C1 (stereo not shown) [Compound 150] | > 1000 nM | > 1000 nM | 100 to 1000 nM | A (A=greater than 200 fold) | A (A=greater than 200 fold) | B (B=less than 200 fold, but greater than 20 fold) | < 100 nM | < 1000 nM | ≤ 1000 nM | < 1000 nM | – | < 1000 nM | –
13 | CC(C)c1cnn2c(NCc3ccccc3-c3cc4cccc(NC(=O)CCCN(C)C)c4[nH]3)nc(N3CCC(N)CC3)nc12 [Compound 143] | 100 to 1000 nM | 100 to 1000 nM | < 100 nM | B (B=less than 200 fold, but greater than 20 fold) | B (B=less than 200 fold, but greater than 20 fold) | C (C=less than 20 fold) | < 100 nM | 1000 to 10000 nM | ≤ 1000 nM | < 1000 nM | – | – | 1000 to 10000 nM
